Assay results published in patent US9375450B2, “Vaginal tissue rejuvenation compositions and methods” (priority 2011, dated 2016).

What was measured:
[1] = system: ovariectomized (OVX) Sprague-Dawley rats; assay: Vaginal histology and histomorphometry after 2 weeks vaginal suppositories; format: in vivo, rat; details: vaginal suppositories 2 weeks; for vaginal epithelial thickness / vaginal muscularis thickness / vaginal lamina propria thickness / vaginal thickness (all three layers of the vagina) / lamina propria collagen fiber compactness: mean±SD; for vaginal epithelial thickness: placebo 57±18; for vaginal muscularis thickness: placebo 121±44; for vaginal lamina propria thickness: placebo 179±71; for vaginal thickness (all three layers of the vagina): placebo 358±86; for vaginal epithelial cornification rate: placebo 0%; for lamina propria collagen fiber compactness: scale 0-5 (0=loose, 5=tight), placebo 4.5±0.6
Method: Ten to 12-weeks old female ovariectomized (OVX) Sprague-Dawley rats were utilized for the experiments. The animals were acclimatized to the environmental conditions before starting the experiment. The animals were housed individually and were allowed free access to water and rodent food. […] The suppositories were prepared according to the fusion method, using a polypeg suppository base ([…]., USA). […] Using a microwave, the suppository base was melted in a small beaker for 3 min and then transferred and kept into a water bath at a temperature of 55° C. The proper amount of above reagent was added to the liquefied base and meticulously crushed with a smooth rounded-end glass rod for about 20 min to make the solution to be even and clear. A pipette tip was used to suck some amount of solution and push it into a plastic tube with a diameter of 3.5 mm, and the tube was immediately left on the flat surface of an ice bucket. The suppository turned to white in color when it was solid. The moulded suppository was then pushed out of the tube using a round rod. […] After 30 min of cooling at room temperature, the suppositories were stored at 4° C. in a closed chamber until use. They were left to reach room temperature before use. The day after the last treatment the rats were overnight fasted and then sacrificed. Macroscopic measurement (genital hiatus, vaginal length) were taken and the vagina was dissected out carefully to avoid any injury to the vagina. The mid section of the vagina was utilized for histology (H and E stain, Masson's trichrome stain) and immunofluorescence and the rest of the vagina was used for RNA extraction and RT-PCR. […] For each animal, a 4 μm-thick paraffin section was cut and stained with haematoxylineosin and with Masson's trichrome stain for morphological examination. […] The cornification was determined by the presence of a keratin layer on the vaginal epithelium. Measurements of the different vaginal layers were performed on the fifth segment of the vagina, which is approximately halfway between the middle region and the portio vaginalis uteri. […] Images were captured with a color digital camera and quantified using ImageJ software was used. […] The thickness of the lamina propria was obtained by deducting the thickness of the epithelium and muscularis from total vaginal thickness.

[2] = system: rat vaginal Col1a1, Col3a1, Col5a1 mRNA; assay: qRT-PCR of vaginal collagen gene expression after 2 weeks vaginal suppositories; format: in vivo; details: OVX rats, vaginal suppositories 2 weeks, mean±SD; for ratio of vaginal Col1a1 to Col3a1 mRNA expression: placebo 0.78±0.2; for ratio of vaginal Col1a1 to Col5a1 mRNA expression: placebo 4.3±1.9
Text: Ten to 12-weeks old female ovariectomized (OVX) Sprague-Dawley rats were utilized for the experiments. The animals were acclimatized to the environmental conditions before starting the experiment. The animals were housed individually and were allowed free access to water and rodent food. Two weeks after the ovariectomy rats (n=36) were divided into five groups: control (receiving placebo suppositories, n=8), Zinc (receiving zinc sulfate containing suppositories, n=8), GW (receiving GW501516 containing suppositories, n=8), Zinc with GW (receiving Zinc with GW 501516 containing suppositories, n=8) and Estradiol (receiving estradiol containing suppositories, n=4).
The suppositories were prepared according to the fusion method, using a polypeg suppository base (MEDISCA, N.Y., USA). […] Using a microwave, the suppository base was melted in a small beaker for 3 min and then transferred and kept into a water bath at a temperature of 55° C. The proper amount of above reagent was added to the liquefied base and meticulously crushed with a smooth rounded-end glass rod for about 20 min to make the solution to be even and clear. A pipette tip was used to suck some amount of solution and push it into a plastic tube with a diameter of 3.5 mm, and the tube was immediately left on the flat surface of an ice bucket. The suppository turned to white in color when it was solid. The moulded suppository was then pushed out of the tube using a round rod. The moulded suppository was cut using a razor blade to a length of 1.2 cm each, which was calibrated to equal a volume of 50±5 μl per each suppository. After 30 min of cooling at room temperature, the suppositories were stored at 4° C. in a closed chamber until use. They were left to reach room temperature before use.
Total RNA was isolated from 20 mg of vaginal rat tissue in each experimental rat group using the RNeasy Mini kit (Qiagen) according to the manufacturer's specifications. For each total RNA preparation, DNase digestion was performed to remove contaminating genomic DNA. Total RNA samples from each tissue were quantified and evaluated for RNA integrity by the Agilent Bioanalyzer 2100 (Applied Biosystems, Foster City Calif., USA). Following RNA extraction, cDNA was reverse transcribed from ˜500 ng of each total RNA preparation using the qScript cDNA synthesis kit (Quanta Biosciences, Gaithersburg Md., USA). Finally, cDNA samples were used to perform gene expression analysis by qRT-PCR using SYBR Green technology on the RealPlex EP Mastercycler (Eppendorf, Germany) of five genes with known roles in vaginal tissue reconstruction: Collagen IaI (col 1a1), Collagen IIIaI (col 3a1), Collagen VaI (col 5a1), Elastin (eln), Tensin I (tns-1). Glyceraldehyde-3 Phosphate Dehydrogenase (gapdh) was used as a positive control to normalize the expression of each gene. Each qRT-PCR reaction was run in triplicate using Perfecta SYBR Green Supermix (Quanta Biosciences, Gaithersburg Md., USA) in 25 μL reaction volumes using a final concentration of 300 nM forward and reverse primers. For each of the genes analyzed in this study, primers were designed using Primer-BLAST software (NCBI) and synthesized by IDT Technologies (San Diego, Calif.).

[3] = system: rat vaginal Collagen I, Collagen III, Collagen V protein; assay: Immunofluorescence of vaginal collagen protein expression after 2 weeks vaginal suppositories; format: in vivo; details: OVX rats, vaginal suppositories 2 weeks, mean±SD; for ratio of vaginal Collagen I to Collagen III protein expression: placebo 1.16±0.2; for ratio of vaginal Collagen I to Collagen V protein expression: placebo 1.28±0.3
Method: Ten to 12-weeks old female ovariectomized (OVX) Sprague-Dawley rats were utilized for the experiments. The animals were acclimatized to the environmental conditions before starting the experiment. The animals were housed individually and were allowed free access to water and rodent food. […] The suppositories were prepared according to the fusion method, using a polypeg suppository base ([…]., USA). […] Using a microwave, the suppository base was melted in a small beaker for 3 min and then transferred and kept into a water bath at a temperature of 55° C. The proper amount of above reagent was added to the liquefied base and meticulously crushed with a smooth rounded-end glass rod for about 20 min to make the solution to be even and clear. A pipette tip was used to suck some amount of solution and push it into a plastic tube with a diameter of 3.5 mm, and the tube was immediately left on the flat surface of an ice bucket. The suppository turned to white in color when it was solid. The moulded suppository was then pushed out of the tube using a round rod. […] After 30 min of cooling at room temperature, the suppositories were stored at 4° C. in a closed chamber until use. They were left to reach room temperature before use. The day after the last treatment the rats were overnight fasted and then sacrificed. Macroscopic measurement (genital hiatus, vaginal length) were taken and the vagina was dissected out carefully to avoid any injury to the vagina. The mid section of the vagina was utilized for histology (H and E stain, Masson's trichrome stain) and immunofluorescence and the rest of the vagina was used for RNA extraction and RT-PCR. Samples were incubated with three different antibodies, collagen I, III and anti-actin or collagen I and V and anti-actin. Frozen tissues samples were cut into sections of 6 μm and fixed for 10 min with acetone, followed by five washes of phosphate-buffered saline (PBS). […] After that, sections were incubated with the secondary antibody for one hour in the dark, at room temperature, followed by five washes of PBS. […] Alexa Fluor 405 Goat Anti-Mouse IgG (1:400) (Invitrogen); Cy3-AffiniPure Goat Anti-Mouse IgM (1:400) (Jackson ImmunoResearch Laboratories, West Grove, Pa.); Alexa Fluor 647 (1;200) phalloidin (Invitrogen). […] Four images were obtained per section. Images were capture with an Orca II-ERG 12 bitt CCD camera in a Zeiss Apotome microscope with a 20× objective. The data was analyzed using Matamorph version 7.7.4 software. Results are represented as mean pixel intensity ratios per square area.

[4] = system: ovariectomized (OVX) Sprague-Dawley rats; assay: Macroscopic measurements (genital hiatus, vaginal length) after 2 weeks vaginal suppositories; format: in vivo, rat; details: vaginal suppositories 2 weeks (20 μM zinc sulfate, 10 nM GW501516, 0.01% estradiol), mean±SD; for genital hiatus (distance between the external urethral meatus and the mid anus): placebo 12.6±1.1; for vaginal length: placebo 14.1±1.1
Method: Ten to 12-weeks old female ovariectomized (OVX) Sprague-Dawley rats were utilized for the experiments. The animals were acclimatized to the environmental conditions before starting the experiment. The animals were housed individually and were allowed free access to water and rodent food. […] The suppositories were prepared according to the fusion method, using a polypeg suppository base ([…]., USA). […] Using a microwave, the suppository base was melted in a small beaker for 3 min and then transferred and kept into a water bath at a temperature of 55° C. The proper amount of above reagent was added to the liquefied base and meticulously crushed with a smooth rounded-end glass rod for about 20 min to make the solution to be even and clear. A pipette tip was used to suck some amount of solution and push it into a plastic tube with a diameter of 3.5 mm, and the tube was immediately left on the flat surface of an ice bucket. The suppository turned to white in color when it was solid. The moulded suppository was then pushed out of the tube using a round rod. […] After 30 min of cooling at room temperature, the suppositories were stored at 4° C. in a closed chamber until use. They were left to reach room temperature before use. The day after the last treatment the rats were overnight fasted and then sacrificed. Macroscopic measurement (genital hiatus, vaginal length) were taken and the vagina was dissected out carefully to avoid any injury to the vagina. The mid section of the vagina was utilized for histology (H and E stain, Masson's trichrome stain) and immunofluorescence and the rest of the vagina was used for RNA extraction and RT-PCR.

SMILES: Cc1cc(SCc2sc(-c3ccc(C(F)(F)F)cc3)nc2C)ccc1OCC(=O)O [GW501516, 2-[2-methyl-4-([4-methyl-2-[4-(trifluoromethyl)phenyl)-1,3-thiazol-5-yl]methylsulfanyl]phenoxy]acetic acid]
- vaginal epithelial thickness [1]: 54±23 μm
- vaginal muscularis thickness [1]: 130±50 μm
- vaginal lamina propria thickness [1]: 192±68 μm
- vaginal thickness (all three layers of the vagina) [1]: 377±98 μm
- vaginal epithelial cornification rate [1]: 25%
- lamina propria collagen fiber compactness [1]: 4.0±0.5 relative units
- ratio of vaginal Col1a1 to Col3a1 mRNA expression [2]: 1.0±0.2 relative units
- ratio of vaginal Col1a1 to Col5a1 mRNA expression [2]: 8.8±3.0 relative units
- ratio of vaginal Collagen I to Collagen III protein expression [3]: 1.20±0.1 relative units
- ratio of vaginal Collagen I to Collagen V protein expression [3]: 1.20±0.4 relative units
- genital hiatus (distance between the external urethral meatus and the mid anus) [4]: 14.7±1.1 mm
- vaginal length [4]: 15.5±1.0 mm

SMILES: O.O.O.O.O.O.O.O=S(=O)([O-])[O-].[Zn+2] [zinc sulfate, zinc sulfate heptahydrate]
- vaginal epithelial thickness [1]: 79±21 μm
- vaginal muscularis thickness [1]: 155±58 μm
- vaginal lamina propria thickness [1]: 242±78 μm
- vaginal thickness (all three layers of the vagina) [1]: 477±106 μm
- vaginal epithelial cornification rate [1]: 87%
- lamina propria collagen fiber compactness [1]: 3.5±0.5 relative units
- ratio of vaginal Col1a1 to Col3a1 mRNA expression [2]: 0.95±0.1 relative units
- ratio of vaginal Col1a1 to Col5a1 mRNA expression [2]: 9.7±2.5 relative units
- ratio of vaginal Collagen I to Collagen III protein expression [3]: 1.37±0.1 relative units
- ratio of vaginal Collagen I to Collagen V protein expression [3]: 1.50±0.4 relative units
- genital hiatus (distance between the external urethral meatus and the mid anus) [4]: 14.5±2.5 mm
- vaginal length [4]: 15.6±4.0 mm
